Experimental findings from patent publication EP0063525A1, “Dibenzazepine tetracyclic derivatives, process for their preparation and pharmaceutical compositions containing them” (CENTRE NATIONAL DE LA RECHERCHE SCIENTIFIQUE (CNRS), priority 1981, dated 1982) are described below.

Like-named read-outs stand apart in the source and are kept apart here.

Series [1] relates to Souris. The series can be described thus: tetrabenazine ptosis. The format is in vivo. The settings on record: for Ptosis 30 minutes / Ptosis 60 minutes / Ptosis 90 minutes / Ptosis 120 minutes: score 0-4 per eye. On the procedure:
(§1) Ce test permet de révéler également une activité antidépressive avec l'avantage d'une lecture plus rapide qu'avec la réserpine.
(§2) Les souris sont réparties par lots de 5.
Le ptosis est noté avant l'injection de tétrabénazine, 30 minutes, 60 minutes, 90 minutes et 120 minutes après.
On a adopté la notation suivante : • - 0 : pour un oeil ouvert, • - 1 : pour un oeil fermé au quart, • - 2 : pour un oeil fermé à moitié, • - 3 : pour un oeil fermé aux trois-quarts, • - 4 : pour un oeil fermé complètement.
(§3) Le lot témoin comprend 20 souris.

Series [2] deals with Souris. The series can be described thus: tetrabenazine hypothermia. The format is in vivo. How it is done: as §1
Les produits sont injectés 30 minutes avant l'administration de tétrabénazine.
Les températures sont relevées aux temps : 0, 30 minutes, 60 minutes, 90 minutes et 120 minutes.
as §2
Les températures sont relevées avant l'injection de tétrabénazine, 30 minutes, 60 minutes, 90 minutes et 120 minutes après.
as §3

In the next series the test system is souris femelles. The series can be described thus: acute toxicity in the mouse, intraperitoneal. The series is classed as in vivo. Conditions: voie intrapéritonéale, dead mice of the group. The source says:
(§4) Les produits ont été administrés par voie intrapéritonéale à des souris femelles dont le poids variait de 18 à 30 g.
(§5) Les animaux injectés ont été maintenus dans une salle thermostatée, nourris et abreuvés à volonté.
(§6) La mortalité a été relevée à 1 heure, 4 heures, 24 heures et 48 heures.

A short description of series [3]: acute toxicity in the mouse, intraperitoneal. The series is classed as in vivo, Souris. Conditions: mouse, in vivo, ip, voie intrapéritonéale; for LD50 at 48 h: souris femelles, read-out: DL 50; for mortality at 48 h: read-out: Mortalité %.
Text: as §4, §5, §6

The test system of series [4] is Souris. The series can be described thus: antireserpine activity: reserpine hypothermia. The format is in vivo. Conditions: réserpine 5 mg/kg i.p. 17 h before. In a few lines:
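Mice in groups of 4 given reserpine 5 mg/kg i.p.; 17 hours later rectal temperature taken by thermocouple and test substance or solvent given i.p. Temperature measured hourly for 4 hours. Reported as mean temperature changes at 1, 2, 3 and 4 hours, their 4-hour sum, and percent rise versus solvent controls.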

A further series relates to chiens anesthésiés. The series can be described thus: cardiovascular toxicity in the anaesthetised dog, slow perfusion. The series is classed as in vivo, Chien. Conditions: chiens anesthésiés, perfusion lente. How it is done:
L'étude du composé 2 a été effectuée sur 7 chiens anesthésiés à des doses allant de 4 à 20 mg/kg en perfusion lente.

Where [5] appears, read: product i.p. 50 mg/kg 30 min before tétrabénazine 32 mg/kg i.v.
Where [6] appears, read: product i.p. 25 mg/kg 30 min before tétrabénazine 32 mg/kg i.v.

With `CN(C)CCN1c2ccccc2C=Cc2ccccc21` [compound 20, (β-diméthylaminoéthyl)-5 dibenzo [b,f] 5H azépine, reference compound], in the series with Souris [1] (ip, 2 h, ptosis, product i.p. 50 mg/kg 30 min before tétrabénazine 32 mg/kg i.v., read-out: % de protection), the inhibition in vivo at 50 mg/kg came out at 60%. For the same compound, in the series with Souris [1] (setting [5]), the “Ptosis Total” value was 12,2, the “Ptosis 30 minutes” value is 2,2, the “Ptosis 60 minutes” value is 3,4 and the “Ptosis 90 minutes” value is 3,2. In addition, the “Ptosis 120 minutes” value in the series on Souris [1] (setting [5]) is given as 3,6. In addition, the inhibition in vivo at 50 mg/kg with Souris [2] (ip, 2 h, hypothermie, product i.p. 50 mg/kg 30 min before tétrabénazine 32 mg/kg i.v., read-out: % de protection) was found to be 46%. For the same compound, in the series with Souris [2] (setting [5]), the “Température après tétrabénazine 30 minutes” value is reported as -3,1, the “Température après tétrabénazine 60 minutes” value was -0,2, the “Température après tétrabénazine 90 minutes” value was -0,3 and the “Température après tétrabénazine 120 minutes” value is on record as -1. The “Température après tétrabénazine Total” value with Souris [2] (setting [5]) was -4,6. Besides, in the series on souris femelles (50 mg/kg), the “Mortalité en 1 heure” value is listed as 0 and the “Mortalité en 48 h.” value is on record as 0. For the same compound, in the series with souris femelles (100 mg/kg), the “Mortalité en 1 heure” value is 3 and the “Mortalité en 48 h.” value was determined as 3. For the same compound, in the series on souris femelles (200 mg/kg), the “Mortalité en 1 heure” value came out at 5 and the “Mortalité en 48 h.” value was 5. In addition, the LD50 at 48 h in series [3] came out at 75 mg/kg. Besides, in series [3] (50 mg/kg), the mortality at 48 h is 0%. In series [3] (100 mg/kg), the mortality at 48 h was 60%. Besides, the mortality at 48 h in series [3] (200 mg/kg) stood at 100%. Besides, the change in vivo at 50 mg/kg with Souris [4] (ip, 4 h, product i.p. 50 mg/kg, read-out: % d'augmentation par rapport aux témoins) turned out to be 440%. In the series on Souris [4] (product i.p. 50 mg/kg), the “Augmentation de température en 4 h” value was “+10,8”, the “variation de température T= 2h” value is given as “+2,7”, the “variation de température T=3h” value was “+2” and the “variation de température T=4h” value was “+1”.
Take `CC(CN(C)C)CN1c2ccccc2C=Cc2ccccc21` (stereo not drawn) [compound 22, (méthyl-2 diméthylamino-3 propyl)-5 dibenzo [b,f] 5H azépine, reference compound]: the inhibition in vivo at 25 mg/kg in the series with Souris [1] (ip, 2 h, ptosis, product i.p. 25 mg/kg 30 min before tétrabénazine 32 mg/kg i.v., read-out: % de protection) was found to be 11%. Besides, in the series on Souris [1] (setting [6]), the “Ptosis Total” value is recorded as 26,8, the “Ptosis 30 minutes” value is on record as 5,6, the “Ptosis 60 minutes” value is on record as 6,8 and the “Ptosis 90 minutes” value is 6,8. In the series with Souris [1] (setting [6]), the “Ptosis 120 minutes” value is listed as 7,6. Further, the inhibition in vivo at 25 mg/kg in the series on Souris [2] (ip, 2 h, hypothermie, product i.p. 25 mg/kg 30 min before tétrabénazine 32 mg/kg i.v., read-out: % de protection) amounted to 50%. Also, in the series with Souris [2] (setting [6]), the “Température après tétrabénazine 30 minutes” value is -3,5, the “Température après tétrabénazine 60 minutes” value is listed as -0,1, the “Température après tétrabénazine 90 minutes” value is given as -0,6 and the “Température après tétrabénazine 120 minutes” value is on record as -0,1. The “Température après tétrabénazine Total” value with Souris [2] (setting [6]) was -4,3. In addition, in the series on souris femelles (25 mg/kg), the “Mortalité en 1 heure” value is listed as 0 and the “Mortalité en 48 heures” value is on record as 0. Moreover, in the series on souris femelles (50 mg/kg), the “Mortalité en 1 heure” value stood at 0 and the “Mortalité en 48 h.” value is 1. For the same compound, in the series on souris femelles (100 mg/kg), the “Mortalité en 1 heure” value turned out to be 4 and the “Mortalité en 48 h.” value worked out at 5. Further, in series [3], the LD50 at 48 h came to 75 mg/kg. The mortality at 48 h in series [3] (25 mg/kg) amounted to 0%. Further, the mortality at 48 h in series [3] (50 mg/kg) is 20%. Also, the mortality at 48 h in series [3] (100 mg/kg) worked out at 100%. Besides, the change in vivo at 25 mg/kg in the series with Souris [4] (ip, 4 h, product i.p. 25 mg/kg, read-out: % d'augmentation par rapport aux témoins) was determined as 85%. In addition, in the series on Souris [4] (product i.p. 25 mg/kg), the “variation de température T= 2h” value is listed as “+0,5”, the “variation de température T=3h” value is “+1” and the “variation de température T=4h” value is “+0,4”.
For the compound `CN(C)CCCN1c2ccccc2CCc2ccccc21` [imipramine, reference compound], the “retour vers les valeurs de départ des paramètres enregistrés, dès l'arrêt de l'injection” value in the series with chiens anesthésiés is “n'a pas été constatée”.
